Patent publication US20140128365A1, “PYRIDONE/HYDROXYPYRIDINE 11-BETA HYDROXYSTEROID DEHYDROGENASE TYPE I INHIBITORS” (BRISTOL-MYERS SQUIBB COMPANY, priority 2012, published 2014)
Read-outs that look alike come from different tables or passages of the source.

Tests used:
[1] = target: T1, recombinant human 11beta-HSD1 (Homo sapiens, UniProt P28845); experiment: In vitro inhibition of recombinant human 11beta-HSD1, microsomal Scintillation Proximity Assay (SPA); format: biochemical; conditions: microsomes from HEK 293 EBNA cells, 250 nM [3H]-cortisone, 500 μM NADPH, pH 6.5, room temperature
T1 construct: made in house; microsomal fraction used as enzyme source
Experimental: The in vitro inhibition of recombinant human 11beta-HSD1 was determined as follows.
Cells were grown in DMEM (high glucose) containing MEM non-essential amino acids, L-glutamine, hygromycine B (200 ug/ml), and G418 (200 ug/ml). The cell pellets were homogenized, and the microsomal fraction was obtained by differential centrifugation. 11beta-HSD1 over expressed microsomes were used as the enzyme source for the Scintillation Proximity Assay (SPA). […] The reaction was terminated with the addition of 1 mM 18β-glycerrhentic acid. SPA reagent mixture (YSi anti-rabbit IgG, anti-cortisol antibody in 50 mM Tris, pH 8.0 containing 1% CHAPS and 1% glycerol) was added and the reaction was further incubated at room temperature over night and counted in TopCount.
In the structures set forth in Table 10, the “—O” attached to the carbon adjacent to the nitrogen in the bicyclic core is used to denote an “—OH” group as indicated in Formula I. Similarly, in the structures set forth in Table 10, the “N” adjacent to the carbon atom substituted with ═O in the bicyclic or tricyclic core is used to denote an “NH” moiety as indicated in Formula I-t.

[2] = tested on: hepatic glucose production; conditions: seven day treatment, patients with type 2 diabetes, versus placebo group; cited from earlier work

T1 sequence (P28845 whole entry): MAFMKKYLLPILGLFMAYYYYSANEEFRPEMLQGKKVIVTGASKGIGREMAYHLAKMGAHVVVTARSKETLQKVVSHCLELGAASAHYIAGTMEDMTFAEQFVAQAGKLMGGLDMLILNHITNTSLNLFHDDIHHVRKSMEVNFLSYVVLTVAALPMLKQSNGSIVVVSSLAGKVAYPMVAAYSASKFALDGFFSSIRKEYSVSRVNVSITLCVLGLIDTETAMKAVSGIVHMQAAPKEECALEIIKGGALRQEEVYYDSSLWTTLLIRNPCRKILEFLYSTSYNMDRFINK

Row | Molecule | IC50 [1] | also measured
1 | 4,7-Dichloro-1-(2-chlorobenzylthio)isoquinolin-3-ol [Example 109] | – | IC50 ([1]; read-out: IC50 (concentration of compound required for 50% inhibition of cortisol formation)): 0.671 µM
2 | CC1(C)[C@@H](OC(=O)CCC(=O)O)CC[C@]2(C)[C@H]3C(=O)C=C4[C@@H]5C[C@@](C)(C(=O)O)CC[C@]5(C)CC[C@@]4(C)[C@]3(C)CC[C@@H]12 [carbenoxolone] | – | hepatic glucose production [2]: decrease in hepatic glucose production
3 | COc1cccc(CSc2nc(O)c(C#N)c3c2CCCC3)c1 [Example 17] | 0.461 µM | –
4 | COc1ccc(CSc2nc(O)c(C#N)c3c2CCCC3)cc1 [Example 25] | 0.467 µM | –

Now from value to molecule, other results behind:

Row | IC50 [1] | Molecule | also measured
5 | 0.00145 µM | N#Cc1ccccc1CSc1nc(O)c(C#N)c2ccc(F)cc12 [Example 153] | –
6 | > 10 µM | N#Cc1c(O)nc(SCc2ccccc2C(=O)O)c2c1CCCC2 [Example 34] | –
